# Laboratory results reported in patent US6528675B1, “Cyanohydrin ethers and esters as high-sensitivity enzyme substrates” (The Regents of the University of California, priority 2001, dated 2003).
# Legend:
# [1] = Substrate stability in buffer, UV detection; type: physicochemical; settings: 5 min, 10 μM
# Experimental: (§1) The same two invention substrates and two prior art substrates were tested for stability by both UV detection and fluorescence detection under typical assay conditions.
# (§2) Tris maleate buffers (0.1 M) at pH ranging from 6.0 to 9.0 in intervals of 1.0 were used, and substrate was added to 10 μM final concentration. […] The fluorescence samples were read with excitation at 360 nm and emission at 460 nm (for pH 6.0), 465 nm (for pH 7.0), 485 nm (pH 8.0), and 510 nm (pH 9.0) for the methylumbelyl acetate, and with excitation at 330 nm and emission at 460 nm for the two test compounds, in all cases, the readings over 5-minute periods.
# [2] = Substrate stability in buffer, fluorescence detection; type: physicochemical; settings: 5 min, 10 μM
# Experimental: as §1, §2
# [3] = system: esterase from a rat liver microsomal preparation; test: Specific activity of esterase against substrates; type: biochemical, Fisher 344 rats; settings: Rat liver microsome, pH 8.0, 10 μM substrate, fluorescence 330/460 nm
# Experimental: (§3) The esterases were porcine esterase purchased from Sigma Chemical Company, St. Louis, Mo., USA, esterase from a rat liver microsomal preparation from 8-week-old Fisher 344 rats, and homogenates of Heliothis virescens from both pyrethroid-susceptible and -resistant strains of tobacco budworm. The substrate in each case was added to a tris-maleate buffer (pH 8.0, 0.1 m) to a final substrate concentration of 10 μM, followed by the addition of the enzyme preparation. The samples were then immediately read by fluorometer at 460 nm for one minute (excitation at 330 nm). The results are listed in Table VI, where “Compound I” denotes the Example 1 substrate, and “Compound II” denotes the Example 4 substrate.
# [4] = Change in optical properties, UV absorption of esters and hydrolysis products; type: physicochemical; settings: for ε (molar absorptivity): in M-1 cm-1 (unit assumed)
# From the text: The substrates representing the invention were (R/S)-acetic acid cyano-(6-methoxynaphthalen-2-yl)-methyl ester (the title compound of Synthesis Example 1 above) and (trans/cis)-3-(2,2-dichlorovinyl)-2,2-dimethylcyclopropanecarboxylic acid cyano-(6-methoxynaphthalen-2-yl)-methyl ester (the title compound of Synthesis Example 2 above).
# porcine esterase [5] = test: Specific activity of esterase against substrates; type: biochemical; settings: pH 8.0, 10 μM substrate, fluorescence 330/460 nm
# Experimental: as §3
# [6] = system: homogenate of Heliothis virescens, pyrethroid-susceptible strain; test: Specific activity of esterase against substrates; type: biochemical; settings: H. virescens (susceptible), pH 8.0, 10 μM substrate, fluorescence 330/460 nm
# Experimental: as §3
# [7] = system: homogenate of Heliothis virescens, pyrethroid-resistant strain; test: Specific activity of esterase against substrates; type: biochemical; settings: H. virescens (resistant), pH 8.0, 10 μM substrate, fluorescence 330/460 nm
# Experimental: as §3
# [8] = Change in optical properties, fluorescence of esters and hydrolysis products; type: physicochemical
# From the text: The substrates representing the invention were (R/S)-acetic acid cyano-(6-methoxynaphthalen-2-yl)-methyl ester (the title compound of Synthesis Example 1 above) and (trans/cis)-3-(2,2-dichlorovinyl)-2,2-dimethylcyclopropanecarboxylic acid cyano-(6-methoxynaphthalen-2-yl)-methyl ester (the title compound of Synthesis Example 2 above). The substrates of the prior art were methylumbelyl acetate (for detection by fluorescence emission) and 2-naphthacetate (for detection by UV absorption) in assay solutions with different pH values. These prior art substrates were selected because both are widely used and both have aromatic systems similar to the two test compounds.
# Again using tris-maleate at pH levels of 6.5, 7.5, and 8.5, fluorescence studies were performed at concentrations of 10 μM, and fluorescence of the starting esters and the hydrolysis products (hydroxycoumarin in the case of methylumbelyl acetate and 6-methoxy-naphthaldehyde in the case of the Example 1 substrate) were determined by conventional instrumentation. The results are listed in Table III in which “MUA” denotes methylumbelyl acetate, “Compound I” denotes the Example 1 substrate, “Ex” denotes the optimal excitation wavelength in nm, “Emmax” denotes the maximal emission wavelength in nm, and “RFU” denotes the relative fluorescence units multiplied by 1,000.
# porcine esterase [9] = test: Sensitivity of substrate to enzyme strength; type: biochemical; settings: pH 8.0, 10 μM substrate, 1 unit=1 μmol/min/mL
# Experimental: This example illustrates the sensitivity of the substrate to the enzyme, and compares a substrate in accordance with the present invention to two prior art substrates. […] The enzyme was porcine esterase.
# A tris-maleate buffer at pH 8.0 (0.1 M) was used. The procedure consisted of adding substrate to a test tube containing 3 mL of buffer to a final substrate concentration of 10 μM, then adding porcine esterase at strengths of 0.06, 0.09. 0.12, 0.18, 0.30, 0.60, 0.9 and 1.2 unit, in which 1 unit=1 μmol/min/mL. […] The enzyme sensitivities for each substrate and detection method were defined as the minimal amount of enzyme per mL required to produce a signal from the substrate that was at least three times greater than the background noise.
# [10] = Rate of conversion of cyanohydrin to aldehyde as a function of pH; type: physicochemical; settings: pH 8.0 or greater, tris-maleate 0.1 M, 25° C.
# Experimental: This example illustrates the rate of conversion of a cyanohydrin formed in the practice of this invention to its corresponding aldehyde. The cyanohydrin used in this example is hydroxy-(6-methoxynaphthalen-2-yl) acetonitrile, which is the cyanohydrin formed by the action of an esterase on the substrate of Example 1.
# The rate of cyanohydrin-to-aldehyde conversion was determined as a function of pH at constant ionic strength (0.1 M) and temperature (25° C.), using a series of tris-maleate buffers with different pH values ranging from 6.0 to 9.0 at intervals of 0.5. Conversion was initiated by the addition of 3 μL of 10 mM of cyanohydrin, and the formation of 6-methoxy-2-naphthaldehyde, measured in pmol cyanohydrin converted per second per mL, was detected by fluorescence excitation at 330 nm and emission at 460 nm over a time period of 20 minutes. […] The rate of aldehyde conversion increases rapidly at pH 8.0 or greater with maximum fluorescence achieved in less than 20 seconds.
smiles,measurement,setting,value
"COc1ccc2cc(C(C#N)OC(C)=O)ccc2c1 (racemic) [Compound I, (R/S)-Acetic Acid Cyano-(6-methoxy-naphthalen-2-yl) Methyl Ester]","Substrate stability, UV Absorption",[1]; pH 6,<0.01 mAbs/min
same,"Substrate stability, UV Absorption",[1]; pH 7,<0.01 mAbs/min
same,"Substrate stability, UV Absorption",[1]; pH 8,<0.01 mAbs/min
same,"Substrate stability, UV Absorption",[1]; pH 9,0.103 mAbs/min
same,"Substrate stability, Fluorescence",[2]; pH 6,<1 pmol/min
same,"Substrate stability, Fluorescence",[2]; pH 7,8 pmol/min
same,"Substrate stability, Fluorescence",[2]; pH 8,59 pmol/min
same,"Substrate stability, Fluorescence",[2]; pH 9,138 pmol/min
same,Specific Activity,[3],"39,800 ± 600 pmol/min/mg protein"
same,OD (optical density),"[4]; tris-maleate pH 6.5, 10 μM",0.086
same,λmax,"[4]; tris-maleate pH 6.5, 10 μM",287 nm
same,ε (molar absorptivity),"[4]; tris-maleate pH 6.5, 10 μM","3,000"
same,OD (optical density),"[4]; tris-maleate pH 7.5, 10 μM",0.137
same,λmax,"[4]; tris-maleate pH 7.5, 10 μM",287 nm
same,ε (molar absorptivity),"[4]; tris-maleate pH 7.5, 10 μM","3,420"
same,OD (optical density),"[4]; tris-maleate pH 8.5, 10 μM",0.142
same,λmax,"[4]; tris-maleate pH 8.5, 10 μM",287 nm
same,ε (molar absorptivity),"[4]; tris-maleate pH 8.5, 10 μM","3,550"
same,Specific Activity,porcine esterase [5],"2,911,000 ± 1,780 pmol/min/mg protein"
same,Specific Activity,[6],"9,700 ± 220 pmol/min/mg protein"
same,Specific Activity,[7],"25,100 ± 425 pmol/min/mg protein"
same,melting point,,84 to 85 °C
same,emission peak,"[8]; over the three pH levels tested (6.5, 7.5, 8.5)",366 nm
same,Emmax (maximal emission wavelength),"[8]; tris-maleate pH 6.5, 10 μM",410 nm
same,Ex (optimal excitation wavelength),"[8]; tris-maleate pH 6.5, 10 μM",360 nm
same,"RFU (relative fluorescence units multiplied by 1,000)","[8]; tris-maleate pH 6.5, 10 μM",241 RFU
same,Emmax (maximal emission wavelength),"[8]; tris-maleate pH 7.5, 10 μM",450 nm
same,Ex (optimal excitation wavelength),"[8]; tris-maleate pH 7.5, 10 μM",360 nm
same,"RFU (relative fluorescence units multiplied by 1,000)","[8]; tris-maleate pH 7.5, 10 μM",581 RFU
same,Emmax (maximal emission wavelength),"[8]; tris-maleate pH 8.5, 10 μM",450 nm
same,Ex (optimal excitation wavelength),"[8]; tris-maleate pH 8.5, 10 μM",360 nm
same,"RFU (relative fluorescence units multiplied by 1,000)","[8]; tris-maleate pH 8.5, 10 μM","3,708 RFU"
same,Sensitivity (minimal amount of enzyme per mL giving a signal at least three times background noise),porcine esterase [9]; Fluorescence detection,0.00002
same,Sensitivity (minimal amount of enzyme per mL giving a signal at least three times background noise),porcine esterase [9]; UV detection,0.001
"COc1ccc2cc(C(O)C#N)ccc2c1 (centres unmarked) [cyanohydrin, hydroxy-(6-methoxynaphthalen-2-yl) acetonitrile]",time to maximum fluorescence (cyanohydrin-to-aldehyde conversion),[10],less than 20 seconds
